Assay results: patent publication US20240325370A1, “THERAPEUTIC REGIMENS OF A DEGRADER OF BRD9” (FOGHORN THERAPEUTICS INC., priority 2021, published 2024)
Read-outs that look alike come from different tables or passages of the source. Each block holds one molecule with its values, some of them ahead of it.

Key:
[1] = target: T1, BRD9 (Homo sapiens, UniProt Q9H8M2); experiment: Drug washout experiments in SYO-1, ASKA and OCI-AML2 cell lines; conditions: followed by washout
T1 sequence (Q9H8M2 1-597): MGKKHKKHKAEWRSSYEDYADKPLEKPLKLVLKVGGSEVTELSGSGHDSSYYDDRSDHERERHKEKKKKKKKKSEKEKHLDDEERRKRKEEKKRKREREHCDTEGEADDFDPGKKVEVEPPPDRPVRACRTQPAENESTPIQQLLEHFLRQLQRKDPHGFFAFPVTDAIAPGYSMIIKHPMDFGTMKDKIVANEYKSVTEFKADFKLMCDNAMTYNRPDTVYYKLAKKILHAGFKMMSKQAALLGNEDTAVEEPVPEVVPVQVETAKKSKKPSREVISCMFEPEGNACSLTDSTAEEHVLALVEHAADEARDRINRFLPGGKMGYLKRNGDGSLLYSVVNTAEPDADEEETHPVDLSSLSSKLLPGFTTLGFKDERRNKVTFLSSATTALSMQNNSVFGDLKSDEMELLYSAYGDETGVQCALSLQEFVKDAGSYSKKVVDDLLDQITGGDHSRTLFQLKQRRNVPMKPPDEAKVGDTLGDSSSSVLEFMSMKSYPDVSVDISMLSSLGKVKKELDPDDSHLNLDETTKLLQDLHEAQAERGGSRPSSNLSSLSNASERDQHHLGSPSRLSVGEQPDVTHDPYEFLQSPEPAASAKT
Experimental: Drug Washout Experiments in SYO-1, ASKA, and OCI-AML2 Cell Lines. To assess the duration of BRD9 protein degradation and recovery post-drug washout, extensive washout experiments were conducted in three cell lines and BRD9 protein levels were assessed through western blot analyses. SYO-1 and ASKA are adherent synovial sarcoma cell lines. OCI-AML2 is an acute myeloid leukemia suspension cell line.
Adherent cells, SYO-1 and ASKA, grown in flasks to log phase growth, were washed with PBS and dissociated by adding TrypLE™ Express.
SYO-1 cells counted and seeded into 6-well plates at a density of 0.5×10^6 cells per well in 2 mL cell culture medium. Two wells were allocated per sample. Plates were incubated at 37° C. with 5% CO2 overnight. […] After 6 hours of incubation, 1×10^6 cells or 2 wells per treated group were harvested and frozen down at −80° C. for the 6-hour treatment sample. The remainder of the compound treated wells were washed four times by replacing all the drug-treated media with an equal volume of fresh media. After the final wash step, cells were incubated in 2 mL fresh media at 37° C. with 5% CO2 for the time points indicated. Washout steps were not performed on wells treated with 0.1% DMSO and cells were harvested at the time indicated.
Two wells were allocated per sample. Plates were incubated at 37° C. with 5% CO2 overnight. […]

[2] = tested on: SYO-1 human biphasic synovial sarcoma tumor; experiment: SYO-1 synovial sarcoma xenograft efficacy, daily i.p. dosing; assay type: in vivo; conditions: 1 mg/kg i.p. daily, 3 weeks; NOD SCID mice
Experimental: Method: NOD SCID mice (Beijing Anikeeper Biotech, Beijing) were inoculated subcutaneously on the right flank with the single cell suspension of SYO-1 human biphasic synovial sarcoma tumor cells (5×106) in 100 μL Dulbecco's Modified Eagle Medium (DMEM) with 10% fetal bovine serum (FBS). The mice were randomized into either control group [10% dimethyl sulfoxide (DMSO), 40% polyethylene glycol (PEG400) and 50% water], or treatment group D1 when the mean tumor size reached about 117 mm^3. Mice were dosed daily through intraperitoneal (i.p.) route over the course of 3 weeks. All dose volumes were adjusted by body weights in terms of mg/kg.

[3] = tested on: ASKA synovial sarcoma xenografts; experiment: ASKA synovial sarcoma xenograft efficacy; assay type: in vivo; conditions: for Tumor Growth (%) on Day 21 / Tumor Size (mm^3) on Day 21: Mean ± SEM; for T/C (%) / TGI (%): Day 21
Experimental: A study was conducted to examine anti-tumor efficacy of compound S-D1 with BIW IV dosing of the racemate, compound D1, for 3 weeks utilizing a second xenograft model of human synovial sarcoma, ASKA. Vehicle (0.5% HPMC, 0.1% Tween 80 in water, pH 1.3 to 1.5), administered orally, was used as the general comparator for all test article responses (i.e., tumor growth and body weight changes). Pazopanib and ifosfamide, two agents currently used in clinic to treat synovial sarcoma patients were compared to compound D1 treatment alone. Pazopanib was administered orally at 40 mg/kg QD and ifosfamide was given IV at 80 mg/kg QD for the first 3 days (Days 0, 1, and 2) in the 3-week treatment period, mimicking the equivalent treatment regimens for both drugs in human patients.

[4] = target: T1, BRD9; experiment: BRD9 degradation by western blot in synovial sarcoma cells (SYO-1, ASKA); assay type: cell-based; conditions: for DC50: read-out: Fitted DC50
Experimental: Method. Synovial sarcoma cells were plated in 6-well plate at […] cells/well and treated with serial concentrations of BRD9 degrader (10 nM top concentration, diluted 1:3) the next day for two time points at 37° C. Cells were then harvested, washed with cold PBS, and frozen in cell pellets at −80° C. Lysates were prepared by resuspending thawed pellets in 1×RIPA Lysis and Extraction buffer (Thermo Fisher, Cat #89900) with 1× Halt™ Protease and Phosphatase Inhibitor Cocktail, EDTA-free (Thermo Fisher, Cat #78441) and 1:1000 dilution Pierce™ Universal Nuclease for Cell Lysis 25ku (Thermo Fisher, Cat #88700). Lysates were incubated on ice for 10 minutes and then centrifuged in 4° C. at maximum speed (15,000 rpm) for 10 minutes. Samples were then analyzed for total protein using BCA protein quantification assay and diluted to 1 ug/μL with lysis buffer and 1× NuPAGE™ LDS Sample Buffer (4×) (Thermo Fisher, Cat #NP0007) and 1×DTT from 30× stock (Cell Signaling Technologies, Cat #14265S). Samples with 20-25 ug of total protein were loaded into 4-12% Bis-Tris Mini-Gel with 1×MES Running buffer and run at 150V for 45 minutes. Gels were transferred using Trans-Blot® Turbo™ Transfer System (semi-dry) at 25V for 10 minutes (High MW setting) on nitrocellulose blots. Blots were blocked in 5% milk in TBST for 1 hour and probed with BRD9 antibody (Bethyl Labs, Cat #A303-781A, 1:750 for SYO1, and Cell Signaling Technologies, Cat #71232S for ASKA) and beta-Actin antibody (Cell Signaling Technologies, Cat #3700, 1:2000) overnight at 4° C. The next day, blots were washed in TBST 3× and probed with 1:5000 IRDye® 680LT Goat anti-Rabbit IgG Secondary Antibody (LICOR, Cat #926-68021) and 1:10000 IRDye® 800CW Goat anti-Mouse IgG Secondary Antibody (LiCOR, Cat #926-32210) in LiCOR Odyssey® Blocking Buffer (TBS) for 1 hour at room temperature. Blots were washed in TBST 3× and scanned at […] wavelength using LiCOR Odyssey® CLx Imaging System. Western blot signal was quantified using same analyses program included in the same machine. BRD9 signal was quantified by normalizing to beta-actin signal and all samples were normalized to DMSO, set as 100% signal.

[5] = 0.1 mg/kg BIW IV 3 weeks, ASKA xenograft
[6] = 0.5 mg/kg BIW IV 3 weeks, ASKA xenograft
[7] = 2 mg/kg BIW IV 3 weeks, ASKA xenograft
[8] = 0.5 or 2 mg/kg BIW IV, ASKA xenograft

Structure (SMILES): COc1cc(-c2cn(C)c(=O)c3cnc(N4CCC4)cc23)cc(OC)c1CN1CCC(CN2CCC3(CC2)CN(c2ccc4c(c2)C(=O)N(C2CCC(=O)NC2=O)C4)C3)CC1 (racemic) [Compound D1, 3-[6-(7-[[1-([4-[6-(azetidin-1-yl)-2-methyl-1-oxo-2,7-naphthyridin-4-yl]-2,6-dimethoxyphenyl]methyl)piperidin-4-yl]methyl]-2,7-diazaspiro[3.5]nonan-2-yl)-1-oxo-3H-isoindol-2-yl]piperidine-2,6-dione]
continued BRD9 depletion after washout ([1]; ASKA and OCI-AML2 cells, 15.6 nM for 6 h): reproduced
BRD9 depletion after washout ([1]; SYO-1 cells treated with 15.6 nM for 6 h): continued depletion of BRD9 up to 7 days
tumor growth inhibition [2]: tumor growth inhibition
Tumor Growth (%) on Day 21 [3, 5]: 440 ± 46%
Tumor Size (mm^3) on Day 21 [3, 5]: 634 ± 82 mm^3
T/C (%) ([3]; 0.1 mg/kg BIW IV 3 weeks): 36.1%
TGI (%) ([3]; 0.1 mg/kg BIW IV 3 weeks): 63.9%
Tumor Growth (%) on Day 21 [3, 6]: 121 ± 13%
Tumor Size (mm^3) on Day 21 [3, 6]: 175 ± 26 mm^3
T/C (%) ([3]; 0.5 mg/kg BIW IV 3 weeks): 9.9%
TGI (%) ([3]; 0.5 mg/kg BIW IV 3 weeks): 90.1%
Tumor Growth (%) on Day 21 [3, 7]: 92 ± 6%
Tumor Size (mm^3) on Day 21 [3, 7]: 130 ± 10 mm^3
T/C (%) ([3]; 2 mg/kg BIW IV 3 weeks): 7.6%
TGI (%) ([3]; 2 mg/kg BIW IV 3 weeks): 92.4%
tumor response [3, 8]: Tumor stasis
tumor stasis continued after the cessation of dosing [3, 8]: approximately 15 days

DC50 ([4]; ASKA, 0.5 h): 0.34 nM
DC50 ([4]; ASKA, 2 h): 0.012 nM
BRD9 degradation compared with racemic parent compound D1 ([4]; SYO-1, 1 or 6 hours (FIGS. 16 and 17)): slightly better
DC50 ([4]; SYO-1, 1 h): 0.092 nM
DC50 ([4]; SYO-1, 6 h): 0.023 nM
potency in degradation of endogenous BRD9 protein ([4]; two synovial sarcoma cell lines, early time point): much more potent
Structure (SMILES): COc1cc(-c2cn(C)c(=O)c3cnc(N4CCC4)cc23)cc(OC)c1CN1CCC(CN2CCC3(CC2)CN(c2ccc4c(c2)C(=O)N([C@H]2CCC(=O)NC2=O)C4)C3)CC1 (single isomer, unassigned) [Compound S-D1]
